Read-outs that look alike come from different tables or passages of the source. Marks after values point to notes of the source that are not given here.
What was measured:
[1] = Coleman et al. 2001; cited from earlier work
[2] = test system: guinea pigs (mothers and newborns); assay: Cisplatin-induced sensorineural hearing loss, auditory brainstem response (ABR); format: in vivo, guinea pig; details: two weeks after delivery, cisplatin 4 mg/kg i.p. once a day for 2 days, LCAR 1 mg/ml in drinking water, mean ±S.E.M.
[3] = test system: outer hair cells (OHCs) of organ of Corti; format: in vivo
Experimental: Pregnant guinea pigs were divided in three groups of 4 each. […] Those from group #2 also received a supplementary dose of LCAR in their drinking water (1 mg/ml ad libitum˜100 mg/kg/day) during the second half of the pregnancy and the immediate postnatal period. Guinea pigs from group #3 (4 mothers & 10 newborns), the control group, were injected with saline solution. Two weeks after delivery, all guinea pigs (mothers and newborns) were anesthetized by intraperitoneal injections of ketamine hydrochloride (60 mg/kg) and xylazine hydrochloride (5 mg/kg), and their auditory brainstem responses (ABR) were measured. They were then euthanized with CO2, and potential cochlear damage was evaluated by confocal microscopy.
The ABR results described in FIG. 1 were independently corroborated by confocal microscopy of the organ of Corti in mothers and newborns. […] The results of FIG. 2 are quantified in Table 1 and FIG. 3.

HEI-OC1 cells [4] = assay: Cisplatin-induced apoptosis, DNA laddering and TUNEL; format: cell-based, mouse
Text: The HEI-OC1 cell line was cloned from cochlear half-turn explants from of an Immortomouse™. […] They are polygonal squamous cells with a dense perinuclear region containing a dense accumulation of multivesicular structures. These multivesicular structures were also observed in the rest of the cytoplasm, although at a lower density. HEI-OC1 cells co-express markers specific for both sensory and supporting cells. Expression of Math-1 and myosin VIIa by these cells indicate that HEI-OC1 cells are indeed sensory hair cell precursors.
Apoptosis was confirmed using TUNEL (ApoAlert DNA Fragmentation Assay—Clontech, Palo Alto, Calif.).

HEI-OC1 cells [5] = assay: Caspase-8 and caspase-9 assays in cisplatin-treated cells; format: cell-based, mouse
newborn guinea pigs [6] = assay: Gentamicin-induced neonatal mortality; format: in vivo, guinea pig
Experimental: (§1) Guinea pigs were used to evaluate the impact of prenatal LCAR supplementation on stress- and gentamicin-induced mortality in newborns because this animal model closely resembles perinatal human physiology. Pregnant guinea pigs (n=25) were divided in five groups. […] In group #2, stress was induced by intraperitoneal injections of normal saline (once daily from days 51 to 57 of gestation). Guinea pigs in group #3 were injected with gentamicin (100 mg/kg once daily from days 51 to 57 of gestation). Finally, groups #4 and #5 were injected with gentamicin as described for group #3, but received LCAR supplementation in their water supply (1 mg/ml˜100 mg/kg/day) starting either 2 weeks prior (Group #4) or simultaneously with gentamicin (Group #5). Newborn mortality was defined as either stillborn or death within the first 48 hrs of life.

[7] = test system: guinea pigs (mothers and newborns); assay: Gentamicin-induced sensorineural hearing loss, ABR; format: in vivo
Experimental: as §1, with “Finally, groups #4 and #5 were injected with gentamicin as described for group #3, but received LCAR supplementation in their water supply (1 mg/ml˜100 mg/kg/day) starting either 2 weeks prior (Group #4) or simultaneously with gentamicin (Group #5).” left out
We investigated the hearing condition and cochlear integrity in the guinea pigs from the five experimental groups described in the above paragraph. Typical ABR recordings from newborn guinea pigs are shown in FIG. 4, while FIG. 5 describes the statistical results. […] Gentamicin (group #3), in contrast, induced a significant increase in hearing threshold in respect to saline (group #2) in mothers (49±3 dB vs. 28±2; P≦0.01) and newborns (38±2 vs. 29±1; P≦0.01).

[8] = test system: outer hair cells (OHCs) and stereocilia bundles; assay: Gentamicin-induced cochlear damage, confocal and scanning electron microscopy; format: in vivo, guinea pig
Experimental: as §1
Confocal and electron microscopy studies indicate that gentamicin induces both sensory cell death and stereocilia disruption in mothers and newborn guinea pigs. […] Whereas in Control animals the three rows of OHCs look generally intact (FIG. 6B), cochleas from guinea pigs treated with gentamicin show “scars” where supporting cells replaced dead OHCs (FIG. 6C). In addition, stereocilia bundles look completely disorganized, with significant structural changes and even “giant” stereocilia (FIG. 6D). […]

newborn guinea pigs [9] = assay: Noise-induced neonatal mortality; format: in vivo, guinea pig; details: group #2: broadband noise 95 SPL 4 h/day, days 50-53 of gestation; LCAR 1 mg/ml in water from day 28
Experimental: (§2) In order to evaluate noise-induced neonatal mortality and the potential impact of prenatal LCAR supplementation, six pregnant guinea pigs were divided into three groups of two animals each. Pregnant guinea pigs in groups #1 and #2 were exposed 4 hours a day during 4 consecutive days to broadband noise (100 Hz-10 kHz) at 95 SPL during days 50 to 53 of gestation. In addition, guinea pigs in group #2 received daily LCAR supplementation in their water supply (1 mg/ml˜100 mg/kg/day) from day 28 of gestation. […] Noise exposure was performed in a sound booth, with the animals in individual plastic cages placed on a wire shelf at ˜0.8 m above the floor. Since at this time of pregnancy guinea pigs spend most of the time resting with the abdomen in contact with the cage floor, the speakers were placed below the shelf, with the sound waves directed toward the cage's floor. Sound pressure levels were measured with a calibrated digital sound level meter (Radio Shack #33-2055) inside the plastic cages.
The experimental protocol assume normal delivery after 59-62 days of pregnancy. In fact, control animals delivered at days 59 and 61, respectively. […] Neonatal mortality—expressed as the number of stillborn or newborn death within the first 48 hrs of life over the total number of animals delivered—was 77% in group #1 ( 7/9), 9% in group #2 ( 1/11), and 0% in group #3 (0/9).

[10] = test system: guinea pigs (mothers and newborns); assay: Noise-induced hearing loss (ABR) and cochlear damage; format: in vivo, guinea pig
Experimental: as §2
Noise-induced cochlear damage and changes in hearing threshold were evaluated in mothers and newborns (ten days after delivery) in the three groups described in the above paragraph. We found moderate threshold shifts (˜9 dB) in mothers exposed to noise (group #1). […] In newborns, we also observed a higher hearing threshold in noise-exposed animals than in those of the control group (36±2 dB group #1 and 30±1 dB group #2 vs. 22±1 dB group #3 control).
Similar damage, but concentrated in smaller regions, was present in cochleas from LCAR-supplemented animals.

HEI-OC1 cells [11] = assay: LCAR prevention of cisplatin- and gentamicin-induced apoptosis, colorimetric CaspACE assay; format: cell-based, mouse; details: 48 hours pre-incubation with 2 mg/ml LCAR
Text: We further investigated whether LCAR was able to prevent cisplatin- and gentamicin-induced apoptosis in HEI-OC1 cells.

[12] = humans, cited from earlier work
[13] = LCAR + Gentamicin = LCAR two weeks prior, Gentamicin + LCAR = simultaneous

## CC(=O)O[C@H](CC(=O)[O-])C[N+](C)(C)C [ALCAR, acetyl-L-carnitine]
[1]
  effect on noise-induced hearing loss: attenuates noise-induced hearing loss

## N.N.[Cl][Pt][Cl] [Cisplatin, cisplatin]
[2]
  average ABR hearing threshold: 46±4 dB
[3]; guinea pig, in vivo
  cisplatin-induced inner hair cell (IHC) damage: no significant
  loss of OHCs by cochlear turn: significant loss of OHCs in the first and second turn of the cochlea
[3]; mothers
  Total % (damaged/total OHCs): 36.0 (297/824) %
  damaged OHC (%) Row #1: 39.6%
  damaged OHC (%) Row #2: 32.6%
  damaged OHC (%) Row #3: 35.9%
[3]; newborns
  Total % (damaged/total OHCs): 34.9 (443/1268) %
  damaged OHC (%) Row #1: 50.2%
  damaged OHC (%) Row #2: 37.9%
  damaged OHC (%) Row #3: 16.9%
HEI-OC1 cells [4]; 100 μM cisplatin, periods 6 hours to 24 hours
  incubation time after which DNA laddering was visible: 18 h
HEI-OC1 cells [4]; 24 hours incubation, doses 25 μM to 500 μM
  cisplatin concentration at which apoptosis (laddering pattern) was first detected: 100 µM
HEI-OC1 cells [5]; 12-hour incubation with 100 μM cisplatin
  caspase-9 activity: increased about five-fold
HEI-OC1 cells [5]; cisplatin-treated HEI-OC1 cells
  caspase-8 activity: little change in activity

## C[N+](C)(C)C[C@H](O)CC(=O)[O-] [LCAR, L-carnitine]
[3]; mothers and newborns
  effect of LCAR supplementation on cisplatin-induced OHC damage: attenuates this cisplatin-induced OHC damage
Newborn guinea pigs [6]; group #4: gentamicin plus LCAR 1 mg/ml in water starting 2 weeks prior
  neonatal mortality (stillborn or death within first 48 hrs): 15%
Newborn guinea pigs [6]; group #5: gentamicin plus LCAR 1 mg/ml in water starting simultaneously
  neonatal mortality (stillborn or death within first 48 hrs): 9%
[7]; LCAR from 28 days of pregnancy (group #4) or coincidental with gentamicin (group #5)
  effect of LCAR supplementation on gentamicin ototoxicity (ABR): attenuates the ototoxic effects of gentamicin in both mothers and pups
[8]; LCAR prior vs simultaneous
  effect on gentamicin-induced OHC death: significantly prevented only in animals supplemented with LCAR two weeks prior gentamicin treatment
[8]; LCAR provided either prior or simultaneously with gentamicin
  effect on gentamicin-induced stereocilia disruption: inhibit gentamicin-induced stereocilia disruption
Newborn guinea pigs [9]
  neonatal mortality (stillborn or death within first 48 hrs): 9%
[10]; LCAR-supplemented noise-exposed animals
  noise-induced cochlear damage (microscopy): significant decrease in cochlear damage
[10]; mothers, LCAR supplemented, ten days after delivery
  hearing threshold shift in noise-exposed mothers: no changes were observed
[10]; newborns, group #2 noise + LCAR, ten days after delivery
  hearing threshold in newborns: 30±1 dB
HEI-OC1 cells [11]; then 24 hours 50 μM gentamicin
  gentamicin-induced cell apoptosis (caspase-3, CaspACE): significantly inhibited
HEI-OC1 cells [11]; then 24 hours 200 μM cisplatin
  cisplatin-induced cell apoptosis (caspase-3, CaspACE): significantly inhibited
[12]; dietary
  dietary LCAR absorbed: 54-87%
[12]
  LCAR filtered by the kidney that is reabsorbed: 90-98%

## gentamicin
Newborn guinea pigs [6]; group #3: gentamicin 100 mg/kg once daily, days 51 to 57 of gestation
  neonatal mortality (stillborn or death within first 48 hrs): 54%
[7]; mothers, group #3 gentamicin 100 mg/kg daily, days 51-57 of gestation
  ABR hearing threshold, mothers: 49±3 dB
[7]; newborns, group #3 gentamicin given to pregnant mothers
  ABR hearing threshold, newborns: 38±2 dB
[8]; [13]
  OHC death, OHCs % Row #1: 0.6* %
  OHC death, OHCs % Row #2: 0.9** %
  OHC death, OHCs % Row #3: 0.8** %
  OHC death, Total %: 0.7** %

From patent US20050049305A1, “Use of L-carnitine in the prevention and treatment of hearing loss” (priority 2002, published 2005)
